Assay results published in PMC6563140, “Azaphilones from the Marine Sponge-Derived Fungus Penicillium sclerotiorum OUCMDZ-3839” (Marine Drugs, 2019).

Legend:
α-glycosidase [1] = assay: PNPG enzyme inhibition assay, reference inhibitor; type: biochemical
α-glycosidase [2] = assay: PNPG enzyme inhibition assay; type: biochemical

| IC50 (α-glycosidase [2]) [µM] | SMILES | IC50 (α-glycosidase [1]) [µM] |
| --- | --- | --- |
| – | C[C@H]1O[C@H](O[C@H]2[C@H](O)[C@@H](O)[C@@H](O[C@H]3[C@H](O)[C@@H](O)C(O)O[C@@H]3CO)O[C@@H]2CO)[C@H](O)[C@@H](O)[C@@H]1N[C@H]1C=C(CO)[C@@H](O)[C@H](O)[C@H]1O (stereo partly drawn) [acarbose] | 1100 |
| 17.3 | CC[C@H](C)/C=C(C)/C=C/C1=CC2=C(Cl)C(=O)[C@]3(C)OC(=O)[C@@H](C(C)=O)[C@@H]3C2=CO1 [compound 11, isochromophilone I] | – |
| 166 | CC[C@H](C)/C=C(C)/C=C/C1=CC2=C(Cl)C(=O)[C@](C)(OC(C)=O)C(=O)C2=CN1 [compound 14, scleratioramine] | – |
